Data taken from PubChem BioAssay (NCI).
Several values for one entry are separate records, joined by “and”; a condition that tells them apart may be missing. Identical values can stand only once.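 Tested at 5 concentrations; 48 h exposure; 96-well plates; endpoints linearly interpolated, else capped at highest concentration. GI50 = concentration required for 50% inhibition of growth. Definition used: TGI = concentration required for complete inhibition of growth.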 Where a SMILES comes first, the peptide text is derived from it. [ ]: non-standard residue; d: D form. The star is where a group is joined. Dolaproine = CO[C@@H]([C@@H]1CCCN1)[C@@H](C)C(=O)O; Dil = CC[C@H](C)[C@H](NC)[C@@H](CC(=O)O)OC; X2 = C[C@@H](N*)[C@@H](O)c1ccccc1; NMeV = CN[C@H](C(=O)O)C(C)C

Test system: MDA-MB-468 breast
Assay: NCI anticancer screen, dose series, 48 h

Row | SMILES | GI50 | TGI
1 | O=C(Nc1ccc2[nH]c3ccccc3c2c1)c1ccccc1Cl | 2.86 µM | 24.9 µM
2 | c1cc[n+](C2c3ccccc3C([n+]3ccccc3)c3ccccc32)cc1 (stereo unspecified) | 1.11 µM | 4.4 µM
3 | CC[C@H](C)[C@@H]([C@@H](CC(=O)N1CCC[C@H]1[C@H](OC)[C@@H](C)C(=O)N[C@H](C)[C@@H](O)c1ccccc1)OC)N(C)C(=O)[C@@H](NC(=O)[C@@H](NC)C(C)C)C(C)C (H-[NMeV]V[Dil][Dolaproine]-X2) | < 0.005 µM | > 57.1 µM
4 | Clc1ccc(C(Cn2ccnc2)OCc2ccsc2Cl)c(Cl)c1 (stereo unspecified) | 2.3 µM | 7.3 µM
5 | C=CC(=O)N1CCN(CCCn2c(=O)c(-c3c(Cl)c(OC)cc(OC)c3Cl)cc3cnc(NC)nc32)CC1 | 1.24 µM | 5.9 µM
6 | CSc1nc(-c2cc3ccccc3o2)cc(-c2ccc(Cl)cc2)c1C#N | 21.8 µM | > 100 µM
7 | CCNC(=O)N1CCc2cc(OC)c(OCCc3ccc(OC)cc3)cc2C1c1ccc(OC)cc1C (stereo unspecified) | 1.93 µM | > 30.2 µM
8 | C[C@@H]1C[C@H]2C(=O)OCC(NC(=O)[C@H](Cc3cc(F)cc(F)c3)NC(=O)Nc3ccc(Cl)cc3F)C(=O)N3CCC[C@H]3C(=O)N3CCCC[C@H]3C(=O)N[C@@H](C)C(=O)N2C1 (stereo partly specified) | 1.43 µM and 0.294 µM | 18.8 µM and 2.88 µM
9 | COc1ccc2c(c1)C=CC1(O2)Oc2ccc(OC)cc2C=C1C (stereo unspecified) | 0.876 µM | > 100 µM
10 | COc1ccc(/C(C)=C(\c2ccc(Cl)cc2)c2ccc(OCCN3CCCCC3)cc2)cc1 | 3.67 µM | 8.03 µM
11 | O=C(Cc1n[nH]c(=O)c2ccccc12)OCc1c(Cl)cccc1Cl | > 100 µM | > 100 µM
12 | O=C1/C(=C/c2ccccc2)CN(C(=O)CCN2CCC(=NO)CC2)C/C1=C\c1ccccc1 | 1.74 µM | 4.25 µM
13 | O=C1Nc2ccccc2/C1=C\c1c(-c2ccccc2)nc2ccccn12 | 2.1 µM | 6.67 µM
14 | Nc1n[nH]c2cccc(C#Cc3cccc(NC(=O)c4ccc(N5CCOCC5)c(C(F)(F)F)c4)c3)c12 | 2.28 µM | 6.82 µM
15 | CC[C@H](C)[C@H](NC(=O)c1ccccn1)C(=O)N(C)[C@H](C[C@@H](OC(C)=O)c1nc(C(=O)N[C@@H](Cc2ccccc2)C[C@H](C)C(=O)OC)cs1)C(C)C | 3.38 µM | 15.4 µM
16 | O=C(Nc1ncc(Cc2ccccc2)s1)c1sc2ccccc2c1Cl | 1.4 µM | 18.7 µM
17 | NC(N)=NN=C(c1ccccc1)c1ccccc1 | 2.2 µM | 12.2 µM

Row | SMILES | GI50 | TGI
18 | CCOc1cc(F)c([N+](=O)[O-])cc1[N+](=O)[O-] | 1.86 µM | 3.51 µM
19 | COc1ccc2cc(C#Cc3ccc(-n4c(/C=C/c5cc(OC)c(OC)c(OC)c5)nc5ccccc5c4=O)c(C)c3)ccc2c1 | 3.8 µM | > 100 µM
20 | C[C@]12CC[C@@H]3c4ccc(O)cc4CC[C@H]3[C@@H]1CC[C@@H]2NS(=O)(=O)c1ccc(Cl)cc1 | 4.94 µM | 17.3 µM
21 | Cc1nc2ccccc2nc1NNc1ccccc1 | 10.3 µM | 58 µM
22 | N#CC1(Nc2ccc(Br)cc2)CCCC1 | > 100 µM | > 100 µM
23 | CC1CCCc2sc3nc(NNC(=O)c4cnccn4)n(-c4ccccc4)c(=O)c3c21 (stereo unspecified) | 0.333 µM and 0.239 µM | 2.3 µM and 0.946 µM
24 | COc1cccc2[nH]c3c4c(c5c(c3c12)C(=O)N(CN1CCN(C)CC1)C5=O)CCC4 | 5.15 µM | 26.6 µM
25 | Cc1ccc(S(=O)(=O)c2ccccc2)cc1 | 1.59 µM | 5.78 µM
26 | CN[C@@H](C)C(=O)N[C@H]1CCS[C@H]2CC(C)(C)[C@@H](C(=O)N[C@H]3c4ccccc4C[C@H]3OCC#CC#CCO[C@@H]3Cc4ccccc4[C@@H]3NC(=O)[C@H]3N4C(=O)[C@@H](NC(=O)[C@H](C)NC)CCS[C@H]4CC3(C)C)N2C1=O | < 0.005 µM | 0.0164 µM
27 | COC1=C(OC)C(=O)C(CCCCCCCCCC[P+](c2ccccc2)(c2ccccc2)c2ccccc2)=C(C)C1=O | 0.0668 µM | 0.694 µM
28 | CCCCC(CCCCCC(CCCC)C1NC(C)Cc2cc(OC)c(OC)cc21)C1NC(C)Cc2cc(OC)c(OC)cc21 (stereo unspecified) | 0.436 µM | 1.88 µM
29 | CNC(=O)c1ccccc1Nc1cc(Nc2ccc(N3CCOCC3)cc2OC)ncc1C(F)(F)F | 27.8 µM | 97.8 µM
30 | COc1cc(/C=C/C(=O)c2ccc(Nc3nc(NCCO)nc(N4CCOCC4)n3)cc2)cc(OC)c1OC | 1.34 µM | 3.76 µM
31 | Clc1ccc2c(N3CCN(c4ccnc(NC5CCCCC5)n4)CC3)ccnc2c1 | 1.64 µM | 3.6 µM
32 | CC[N+](CC)=c1cc2oc3cc(N(C)C)ccc3nc-2cc1C | 1.33 µM | 4.39 µM
33 | O=C(C[n+]1cccc2cc(Cl)ccc21)c1ccc2c(c1)CCCC2 | 0.423 µM | 1.82 µM
